Assay results from ChEMBL document CHEMBL1201862, “PubChem BioAssay data set” (2004).
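96-well plates; 48 h exposure; 5 concentrations. Endpoints by linear interpolation between flanking doses. Not reached: highest tested concentration assigned. Abbreviation: GI50, concentration required for 50% inhibition of growth.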 Activity calls are given as the source filed them. No stated cut-off is given here; in the data, active = GI50 up to about 1.1 µM and inactive = higher.

Columns and labels:
Experiment in all cases: NCI-60 cell line screen, 48 h
SNB-19 = system: SNB-19
NCI-H23 = system: NCI-H23
COLO 205 = system: COLO 205
K562 = system: K562
LOX IMVI = system: LOX IMVI
UACC-257 = system: UACC-257
HCT-15 = system: HCT-15
EKVX = system: EKVX
SK-OV-3 = system: SK-OV-3
MOLT-4 = system: MOLT-4
UACC-62 = system: UACC-62
UO-31 = system: UO-31
HCC 2998 = system: HCC 2998
HCT-116 = system: HCT-116
HOP-92 = system: HOP-92
IGROV-1 = system: IGROV-1
A498 = system: A498
786-0 = system: 786-0
OVCAR-4 = system: OVCAR-4
SK-MEL-2 = system: SK-MEL-2

Row | Compound | GI50 (SNB-19) | GI50 (NCI-H23) | GI50 (COLO 205) | GI50 (K562) | GI50 (LOX IMVI) | GI50 (UACC-257) | GI50 (HCT-15) | GI50 (EKVX) | GI50 (SK-OV-3) | GI50 (MOLT-4) | GI50 (UACC-62) | GI50 (UO-31) | GI50 (HCC 2998) | GI50 (HCT-116) | GI50 (HOP-92) | GI50 (IGROV-1) | GI50 (A498) | GI50 (786-0) | GI50 (OVCAR-4) | GI50 (SK-MEL-2)
1 | O=C1Nc2ccccc2[C@]12C[C@H]2c1ccccn1 | > 100 µM (inactive) | > 100 µM (inactive) | > 100 µM (inactive) | > 100 µM (inactive) | > 100 µM (inactive) | > 100 µM (inactive) | > 100 µM | > 100 µM (inactive) | > 100 µM (inactive) | > 100 µM (inactive) | > 100 µM (inactive) | > 100 µM (inactive) | > 100 µM (inactive) | > 100 µM (inactive) | > 100 µM (inactive) | > 100 µM (inactive) | > 100 µM (inactive) | > 100 µM (inactive) | > 100 µM (inactive) | > 100 µM (inactive)
2 | CCCCNC(=S)Nc1nc(C(=O)NNC(=S)NC2CCCCC2)cs1 |  | > 100 µM (inactive) | > 100 µM (inactive) | 75.5 µM (inactive) | > 100 µM (inactive) | > 100 µM (inactive) | 32.7 µM | > 100 µM (inactive) | 49 µM (inactive) | > 10 µM (inactive) | > 100 µM (inactive) | 45.6 µM (inactive) | > 100 µM (inactive) | > 100 µM (inactive) | > 100 µM (inactive) | 66.5 µM (inactive) | > 100 µM (inactive) | > 100 µM (inactive) | > 100 µM (inactive) | > 100 µM (inactive)
3 | CC1=C[C@@H]2[C@@H](CC(CO)=C[C@H]3[C@@H]4C(C)(C)[C@]4(OCC(C)C)[C@H](OCC(C)C)[C@@H](C)[C@]23O)C1=O | > 6.01 µM (inactive) | 1.91 µM (inactive) | 0.243 µM (active) | 0.137 µM (active) | 1.25 µM (inactive) | 1.62 µM (inactive) | 1.42 µM | 1.03 µM (active) | > 8.32 µM (inactive) | 0.646 µM (active) | 1.43 µM (inactive) | 2.22 µM (inactive) | 0.574 µM (active) | 2.04 µM (inactive) | 1.44 µM (inactive) | 2.01 µM (inactive) | 1.08 µM (active) | 1.47 µM (inactive) | 4.28 µM (inactive) | 2.1 µM (inactive)
4 | CC(=O)C1=C(C)NC(=C(C#N)C#N)C(C#N)=C1 | > 100 µM (inactive) | > 100 µM (inactive) | > 100 µM (inactive) | > 100 µM (inactive) | > 100 µM (inactive) |  | > 100 µM | > 100 µM (inactive) |  | > 100 µM (inactive) | > 100 µM (inactive) | > 100 µM (inactive) | > 100 µM (inactive) | > 100 µM (inactive) | > 100 µM (inactive) | > 100 µM (inactive) | > 100 µM (inactive) | > 100 µM (inactive) | 3.81 µM (inactive) | > 100 µM (inactive)
5 | COC(=O)C(NC(=O)c1ccccc1)C(c1c(O)cc(O)cc1O)P(=O)(OC)OC (stereo unspecified) | > 100 µM (inactive) | 69.5 µM (inactive) | > 100 µM (inactive) | 27.2 µM (inactive) | > 100 µM (inactive) | > 100 µM (inactive) | > 100 µM | > 100 µM (inactive) | > 100 µM (inactive) | > 100 µM (inactive) | 6.73 µM (inactive) | > 100 µM (inactive) | > 100 µM (inactive) | > 100 µM (inactive) | > 100 µM (inactive) | > 100 µM (inactive) | > 100 µM (inactive) |  | > 100 µM (inactive) | > 100 µM (inactive)
6 | N#CC12C3C4CC5C6C4C1C6C(O)(C53)N2Cc1ccccc1 (stereo unspecified) | > 100 µM (inactive) | > 100 µM (inactive) | > 100 µM (inactive) | > 100 µM (inactive) | > 100 µM (inactive) | > 100 µM (inactive) | > 100 µM | > 100 µM (inactive) | > 100 µM (inactive) | > 100 µM (inactive) | > 100 µM (inactive) | > 100 µM (inactive) | > 100 µM (inactive) | > 100 µM (inactive) | > 100 µM (inactive) | > 100 µM (inactive) | > 100 µM (inactive) | > 100 µM (inactive) | > 100 µM (inactive) | > 100 µM (inactive)
7 | CC(C)OP(=O)(OC(C)C)/C(=N/Nc1ccc([N+](=O)[O-])cc1)Nc1ccc(N/C(=N\Nc2ccc([N+](=O)[O-])cc2)P(=O)(OC(C)C)OC(C)C)cc1 | 27.4 µM (inactive) | 13.7 µM (inactive) | 5.2 µM (inactive) | 4.79 µM (inactive) | 12.8 µM (inactive) | 37.2 µM (inactive) | 6.21 µM | 26.9 µM (inactive) |  | 2.58 µM (inactive) | 2.2 µM (inactive) | 21.4 µM (inactive) | 2.65 µM (inactive) | 4.15 µM (inactive) | > 100 µM (inactive) | 4.43 µM (inactive) | 16.4 µM (inactive) |  | 35.7 µM (inactive) | 48 µM (inactive)
8 | COC(=O)CCC(=O)c1ccc2c(c1)CCC2 | > 100 µM (inactive) | > 100 µM (inactive) |  | > 100 µM (inactive) | > 100 µM (inactive) | > 100 µM (inactive) | > 100 µM | > 100 µM (inactive) | > 100 µM (inactive) | > 100 µM (inactive) |  | > 100 µM (inactive) | > 100 µM (inactive) | > 100 µM (inactive) | > 100 µM (inactive) | > 100 µM (inactive) | > 100 µM (inactive) | > 100 µM (inactive) | > 100 µM (inactive) | > 100 µM (inactive)
9 | CCCCCCCCCCCCCCCCCCOP(=O)([O-])OCC[N+](C)(C)C [OCTADECYLPHOSPHONOCHOLINE] | 0.849 µM (active) | 1.13 µM (inactive) | 0.146 µM (active) | 0.957 µM (active) | 0.863 µM (active) | 1.19 µM (inactive) | 0.644 µM | 2.14 µM (inactive) | 5.69 µM (inactive) | 0.295 µM (active) | 4.4 µM (inactive) | 1.13 µM (inactive) | 0.245 µM (active) | 0.826 µM (active) | 0.33 µM (active) | 0.614 µM (active) | 8.41 µM (inactive) |  |  | 0.998 µM (active)
10 | CC1CCC2(NC1)OC1CC3C4CC=C5CC(OC6OC(CO)C(OC7OC(C)C(O)C(O)C7O)C(O)C6OC6OC(C)C(O)C(O)C6O)CCC5(C)C4CCC3(C)C1C2C (stereo unspecified) | 11.1 µM (inactive) | 12.2 µM (inactive) | 8.63 µM (inactive) | 4.11 µM (inactive) | 5.79 µM (inactive) | 2.64 µM (inactive) | 6.67 µM | 2.5 µM (inactive) | 7.18 µM (inactive) | 8.55 µM (inactive) | 3.02 µM (inactive) | 7.45 µM (inactive) | 2.16 µM (inactive) | 2.31 µM (inactive) | 3.69 µM (inactive) | 5.82 µM (inactive) | 5.74 µM (inactive) | 1.99 µM (inactive) | 2.54 µM (inactive) | 3.63 µM (inactive)
11 | C=C1C(=O)O[C@@H]2[C@H](O)[C@@H](C)[C@@H]3C=CC(=O)[C@@]3(C)[C@H](OC(=O)C=C(C)C)[C@H]12 | 5.55 µM (inactive) | 1.35 µM (inactive) | 0.49 µM (active) | 0.199 µM (active) | 0.457 µM (active) | 1.59 µM (inactive) | 0.242 µM | 1.74 µM (inactive) | 3.57 µM (inactive) | 0.345 µM (active) | 0.625 µM (active) | 2.82 µM (inactive) | 1.79 µM (inactive) | 0.655 µM (active) | 0.944 µM (active) | 1.96 µM (inactive) | 2.21 µM (inactive) |  | 1.98 µM (inactive) | 1.32 µM (inactive)
12 | Nc1ccn(CCO)c(=O)n1 |  |  | > 100 µM (inactive) | > 100 µM (inactive) | > 100 µM (inactive) | > 100 µM (inactive) | > 100 µM | > 100 µM (inactive) | > 100 µM (inactive) |  | > 100 µM (inactive) | > 100 µM (inactive) | > 100 µM (inactive) | > 100 µM (inactive) | > 100 µM (inactive) | > 100 µM (inactive) | > 100 µM (inactive) | > 100 µM (inactive) | > 100 µM (inactive) | > 100 µM (inactive)
